Data on two compounds can be found in patent publication US20210137857A1, “A COMPOSITION FOR TREATMENT OR PREVENTION OF A NEURODEGENERATIVE DISEASE” (NEILOS S.R.L., priority 2017, published 2021).

For data set [1] the following is noted: human, in vivo; cited from earlier work.
Data set [2] is described as follows: Solubility tests on the test compounds. The data set is classed as physicochemical.

For the compound `Nc1c2c(nc3ccccc13)CCCC2` [Tacrine], in data set [1], the “patients treated with increase in serum transaminases” value is recorded as “more than 50%”; the “patients with abdominal cramps, anorexia, nausea, vomiting and diarrhoea” value was “more than a third of patients”.

For Amyloid β peptide 1-42 [Peptide β1-42], in data set [2], the “Solubility test RESULT” value is reported as “POSITIVE”.
